The results in this text go back to ChEMBL document CHEMBL4715879, “Total Synthesis of the Antitumor-Antitubercular 2,6'-Bijuglone Natural Product Diospyrin and Its 3,6'-Isomer” (J Nat Prod, 2020).

Data set [1] in a line: Inhibition of Mycobacterium tuberculosis DNA gyrase assessed as reduction in DNA supercoiled DNA formation incubated for 30 mins by […] analysis.
Data set [2] can be described thus: Antiproliferative activity against mouse NS-1 cells assessed as reduction in cell viability after 48 hrs by resazurin dye based assay. The class given is functional. The note with it: NS1, 48 h.
For data set [3], the system named is NFF. In words: Cytotoxicity against human NFF cells assessed as reduction in cell viability after 48 hrs by resazurin dye based assay. On the technique in general: Resazurin is reduced to fluorescent resorufin, in cell work by metabolically active cells.
Data set [4] is described as follows: Selectivity index, ratio of IC50 for cytotoxicity against human NFF cells to […] for antiproliferative activity against mouse NS-1 cells.
Data set [5] deals with NFF. In words: Cytotoxicity against human NFF cells assessed as reduction in cell viability at 1 mM after 48 hrs by resazurin dye based assay relative to control. The settings on record: 1000 µM.

With `Cc1cc2c(c(O)c1-c1c(C)cc(O)c3c1C(=O)C=CC3=O)C(=O)C=CC2=O`, in data set [1], the IC50 (usually the point on the concentration scale where inhibition reaches its midpoint) was found to be 100 µM.
As for `COc1cc(C)cc2c1C(=O)C=C(c1c(C)cc3c(c1OC)C(=O)C=CC3=O)C2=O`, the figures for the IC50 (in data set [2]; with NFF [3]) were 0.8 µM and 25.7 µM, respectively. Besides, the “Ratio IC50” value in data set [4] came to 31.
`Cc1cc(O)c2c(c1)C(=O)C=C(c1c(C)cc3c(c1O)C(=O)C=CC3=O)C2=O`: the IC50 in data set [2] was 1.8 µM; in the data set on NFF [3], 31.8 µM. In addition, the “Ratio IC50” value in data set [4] came to 14.
With `O=C(O)c1cn(C2CC2)c2cc(N3CCNCC3)c(F)cc2c1=O` [CIPROFLOXACIN], the IC50 in data set [1] was 10 µM.
Take `Cc1cc(O)c2c(c1)C(=O)C(c1c(C)cc3c(c1O)C(=O)C=CC3=O)=CC2=O` [DIOSPYRIN]: the IC50 in data set [2] is 0.8 µM; in the data set on NFF [3], 5.8 µM; in data set [1], 15 µM. For the same molecule, in data set [4], the “Ratio IC50” value was 10.
Regarding `O=c1[nH]cc(F)c(=O)[nH]1` [FLUOROURACIL], in the data set with NFF [5], the Activity stood at 13%. For the same molecule, the IC50 in data set [2] was 2.8 µM. Also, in data set [4], the “Ratio IC50” value was over 352.
`Cc1cc(O)c2c(c1)C(=O)C=C(c1c(C)cc(O)c3c1C(=O)C=CC3=O)C2=O` [NEODIOSPYRIN]: the IC50 in data set [1] stood at 50 µM.
With `Cc1cc(O)c2c(c1)C(=O)C=CC2=O` [RAMENTACEONE], the IC50 in data set [2] was found to be 0.5 µM; in the data set on NFF [3] it was 7.6 µM. Further, the “Ratio IC50” value in data set [4] worked out at 15.
